According to patent US5104891A, “Cycloheptimidazolone compounds as angiotensin II antagonists for control of hypertension” (G. D. Searle & Co., priority 1989, dated 1992):

Key:
[1] = molecular target: T1, angiotensin II (AII) contraction of rabbit aortic rings (Oryctolagus cuniculus, UniProt P34976); test: In vitro myotropic screening assay for AII antagonists in rabbit aortic rings; type: cell-based; conditions: pA2 determined according to Schild
T1 construct: The thoracic aorta was removed, cleaned of adherent fat and connective tissue and then cut into 3-mm ring segments; from tissue; host or cells: rabbit thoracic aorta rings, endothelium removed
T1 sequence (P34976 1-359): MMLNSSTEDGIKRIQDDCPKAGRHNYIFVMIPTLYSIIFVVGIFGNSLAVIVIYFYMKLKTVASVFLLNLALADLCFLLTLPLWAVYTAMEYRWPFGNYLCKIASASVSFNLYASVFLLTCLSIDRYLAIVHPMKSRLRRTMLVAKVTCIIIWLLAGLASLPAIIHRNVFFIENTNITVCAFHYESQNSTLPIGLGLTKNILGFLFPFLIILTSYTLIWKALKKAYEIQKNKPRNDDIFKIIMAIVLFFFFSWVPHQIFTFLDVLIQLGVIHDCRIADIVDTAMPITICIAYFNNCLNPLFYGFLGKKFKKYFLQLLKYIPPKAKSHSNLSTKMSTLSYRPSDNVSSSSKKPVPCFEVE
Experimental: The compounds of the invention were tested for agonist and antagonist activity in rabbit aortic rings. Male New Zealand white rabbits (2-2.5 kg) were sacrificed using an overdose of pentobarbital and exsanguinated via the carotid arteries. The thoracic aorta was removed, cleaned of adherent fat and connective tissue and then cut into 3-mm ring segments. The endothelium was removed from the rings by gently sliding a rolled-up piece of filter paper into the vessel lumen. The rings were then mounted in a water-jacketed tissue bath, maintained at 37° C., between a moveable and a fixed stainless steel wire, with the moveable end attached to an FT03 Grass transducer coupled to a Model 7D Grass Polygraph for recording isometric force responses. […] The preparations were equilibrated for one hour before approximately one gram of passive tension was placed on the rings. For the agonist assay, the rings were exposed to increasing concentrations of the test compound, at 30 minute intervals, during which time the tissue was washed three times with 20 ml of fresh Krebs solution. For the measurement of antagonistic activity, paired rings from the same rabbits were used; one was exposed to increasing concentrations of AII (at 30 minute intervals), and a second ring was exposed to increasing concentrations of AII in the presence of the test compound which was added five minutes prior to the addition of AII. The concentration response curves for AII in the presence of the antagonist were evaluated in terms of the percent of the maximal contraction of the control ring exposed only to AII. pD2 values for AII were calculated from the AII concentration response curves while pA2s were determined according to Schild.

[2] = molecular target: angiotensin II receptor (rat uterine membranes); test: Angiotensin II binding assay (125I-angiotensin II, rat uterine membranes)
Experimental: Other chemicals were obtained from Sigma Chemical Co.
Rat uterine membranes were prepared from fresh tissue. All procedures were carried out at 4° C. Uteri were stripped of fat and homogenized using a Polytron for 25 sec in 20 volumes of ice-cold Dulbecco's phosphate-buffered saline pH 7.5 (Gibso Labs) containing 5 mM EDTA. The homogenate was centrifuged at 1500× g for 20 min., and the supernatant was recentrifuged at 100,000× g for 60 min. The pellet was resuspended in buffer consisting of 2 mM EDTA and 50 mM Tris-HCl, pH 7.5 to a final protein concentration of 4 mg/ml.
The reaction was initiated by the addition of 50 μg of membrane protein and the mixture was incubated at 25° C. for 30 min. The incubation was terminated with ice-cold 50 mM Tris-HCl; pH 7.5 and the mixture was filtered to separate membrane-bound labelled peptide from the free ligand. The incubation tube and filter were washed with ice-cold buffer. Filters were assayed for radioactivity in a Micromedic gamma counter. Nonspecific binding was defined as binding in the presence of 10 μM of unlabelled AII. Specific binding was calculated as total binding minus nonspecific binding. Binding data was analyzed by a nonlinear least-squares curve fitting program.

angiotensin II = conditions: literature; cited from earlier work
AII pressor response [3] = test: In vivo AII pressor assay, intraduodenal administration; design: species or system rat (male Sprague Dawley); conditions: rat, @ 100 mg
Experimental: (§1) Male Sprague Dawley rats weighing […] were anesthetized with Inactin (100 mg/kg), a catheter was inserted into the trachea and the carotid artery and the jugular vein were cannulated. Arterial pressure was measured from the carotid artery cannula and continuously recorded (Gould, Cleveland, OH). The jugular vein cannula was used for injections of angiotensin II (AII), mecamylamine, atropine and the test compound. The animal was allowed to equilibrate for 30 minutes. Mecamylamine (3 mg/kg, 0.3 mg/kg) and atropine (400 μg/kg, 0.3 ml/kg) were then given iv to produce ganglion blockage. These compounds were administered every 90 minutes throughout the screening procedure. Angiotensin II was given in bolus doses ([…] in saline with 0.5% bovine serum albumin, 0.1 ml/kg) every 10 minutes consecutively three times or until the increase in arterial pressure produced was within 3 mm Hg for two consecutive injections. […] AII injections were then given 1, 5, 10, 20, 30, 45, 60, 75, 90, and 120 minutes after administration of the test compound and the response of arterial pressure monitored. […]
Compounds were tested for absorption from the gastrointestinal tract following intraduodenal administration. […] The response to AII was tested at the same time points following administration of the test compound except that the 1 minute reading was eliminated. […]

AII pressor response [4] = test: In vivo pressor screening assay for AII antagonists, intravenous administration; design: species or system rat (male Sprague Dawley); conditions: rat
Experimental: as §1, with “injections. The last two AII injections are averaged and are referred to as the control response to AII.” for “injections.”

angiotensin II receptors = conditions: background; cited from earlier work
[5] = IC50, 125I-AII, rat uterine membranes, 25° C., 30 min

Compound | IC50 [2, 5] | IC50 ([2]; meaning not explained) | Kb [1] | also measured
4'-[[5(7)-benzyl-7(5)hydrido-2-butyl-6(1H)-cycloheptimidazolon-1-yl]methyl]-[1,1'-biphenyl]-2-carboxylic acid [Example 14] | 2300 nM | 108 nM |  | pA2 [1]: 6.1
CCCCc1nc(Cl)c(CC(=O)O)n1Cc1ccccc1[N+](=O)[O-] [2-butyl-4-chloro-1-(2-nitrobenzyl)imiadzole-5-acetic acid] |  |  |  | angiotensin II antagonist activity (angiotensin II): specific competitive angiotensin II antagonist activity
CCCCc1nc(Cl)c(CC(=O)O)n1Cc1ccccc1Cl [2-n-butyl-4-chloro-1-(2-chlorobenzyl) imidozole-s-acetic acid] |  |  |  | angiotensin II antagonist activity (angiotensin II): specific competitive angiotensin II antagonist activity
CCCCc1nc2cc(C)c(=O)c(C)cc2n1Cc1ccc(-c2ccccc2C(=O)O)cc1 [Example 1, 4'-[[5,7-dimethyl-2-butyl-6(1H)-cycloheptimidazolon-1-yl]methyl]-[1,1'-biphenyl]-2-carboxylic acid] | 800 nM | 250 nM | 1000 nM | Antagonism of the AII pressor response, maximal inhibition, ID (AII pressor response [3]): 72%; Antagonism of the AII pressor response, maximal inhibition, I.V. (AII pressor response [4]; @ 30 mg): 72%
CCCCc1nc2cc(C(=O)O)c(=O)c(C(=O)O)cc2n1Cc1ccc(-c2ccccc2C(=O)O)cc1 [Example 2, 4'-[[5,7-dicarboxy-2-butyl-6(1H)-cycloheptimidazolon-1-yl]methyl]-[1,1'-biphenyl]-2-carboxylic acid] | 500 nM | 140 nM | 251 nM | Antagonism of the AII pressor response, maximal inhibition, I.V. (AII pressor response [4]; @ 10 mg): 100%
CCCCc1nc2ccc(=O)ccc2n1Cc1ccc(-c2ccccc2C(=O)O)cc1 [Example 3, 4'-[[2-butyl-6(1H)-cycloheptimidazolon-1-yl]methyl]-[1,1'-biphenyl]-2-carboxylic acid] | 1400 nM | 24 nM | 1260 nM | 
CCCc1nc2cc(C(=O)O)c(=O)c(C(=O)O)cc2n1Cc1ccc(-c2ccccc2C(=O)O)cc1 [Example 4, 4'-[[5,7-dicarboxy-2-propyl-6(1H)-cycloheptimidazolon-1-yl]methyl]-[1,1'-biphenyl]-2-carboxylic acid] | 2300 nM | 550 nM | 1000 nM | 
CCCc1nc2ccc(=O)ccc2n1Cc1ccc(-c2ccccc2C(=O)O)cc1 [Example 5, 4'-[[2-propyl-6(1H)-cycloheptimidazolon-1-yl]methyl]-[1,1'-biphenyl]-2-carboxylic acid] | 1400 nM | 349 nM | 1260 nM | 
CCCCCc1nc2cc(C)c(=O)c(C)cc2n1Cc1ccc(-c2ccccc2C(=O)O)cc1 [Example 6, 4'-[[5,7-dimethyl-2-pentyl-6(1H)-cycloheptimidazolon-1-yl]methyl]-[1,1'-biphenyl]-2-carboxylic acid] | 2500 nM | 230 nM | 7940 nM | 
CCCCc1nc2cc(-c3ccccc3)c(=O)c(-c3ccccc3)cc2n1Cc1ccc(-c2ccccc2C(=O)O)cc1 [Example 7, 4'-[[5,7-diphenyl-2-butyl-6(1H)-cycloheptimidazolon-1-yl]methyl]-[1,1'-biphenyl]-2-carboxylic acid] | 800 nM | 117 nM | 316 nM | 
CCCCc1nc2cc(C(C)C)c(=O)c(-c3ccccc3)cc2n1Cc1ccc(-c2ccccc2C(=O)O)cc1 [Example 10, 4'-[[5(7)-isopropyl-7(5)phenyl-2-butyl-6(1H)-cycloheptimidazolon-1-yl]methyl]-[1,1'-biphenyl]-2-carboxylic acid] | 2000 nM | 161 nM |  | pA2 [1]: 5.6
CCCCc1nc2cc(O)c(=O)c(Cl)cc2n1Cc1ccc(-c2ccccc2C(=O)O)cc1 [Example 11, 4'-[[5(7)-hydroxy-7(5)chloro-2-butyl-6(1H)-cycloheptimidazolon-1-yl]methyl]-[1,1'-biphenyl]-2-carboxylic acid] | 7100 nM |  |  | pA2 [1]: 6.4
CCCCc1nc2cc(C(=O)O)c(=O)c(COC)cc2n1Cc1ccc(-c2ccccc2C(=O)O)cc1 [Example 12, 4'-[[5(7)-carboxy-7(5)methoxymethyl-2-butyl-6(1H)-cycloheptimidazolon-1-yl]methyl]-[1,1'-biphenyl]-2-carboxylic acid] | 4000 nM | 390 nM |  | pA2 [1]: 6.8
CCCc1nc2ccc(=O)c(Cc3ccccc3)cc2n1Cc1ccc(-c2ccccc2C(=O)O)cc1 [Example 13, 4'-[[5(7)-hydrido-7(5)benzyl-2-propyl-6(1H)-cycloheptimidazolon-1-yl]methyl]-[1,1'-biphenyl]-2-carboxylic acid] | 1900 nM | 38 nM |  | pA2 [1]: 5.5
CCCCCc1nc2cc(C)c(=O)c(C)cc2n1Cc1ccc(-c2ccccc2-c2nn[nH]n2)cc1 [Example 20, 1-{2'-[(tetrazol-5-yl)-biphenyl-4-yl]methyl}-2-pentyl-5,7-dimethyl-cycloheptimidazolone] | 710 nM | 324 nM |  | 
CNCC(=O)N[C@@H](CCCN=C(N)N)C(=O)N[C@H](C(=O)N[C@@H](Cc1ccc(O)cc1)C(=O)N[C@H](C(=O)N[C@@H](Cc1cnc[nH]1)C(=O)N1CCC[C@H]1C(=O)N[C@@H](C)C(=O)O)C(C)C)C(C)C [Saralasin] |  |  |  | residual agonist activity (angiotensin II receptors): significant residual agonist activity
angiotensin II: octapeptide, the primary active species of the renin-angiotensin system (DRVYIHPF; Angiotensin-2; UniProt P01019 25-32, looked up) |  |  |  | vasoconstrictor potency (angiotensin II receptors): very potent vasoconstrictor agent
angiotensin III: heptapeptide {[des Asp^1 ]angiotensin II} |  |  |  | vasoconstrictor potency (angiotensin II receptors): less potent as a vasoconstrictor than angiotensin II
